The text below walks through data of patent US20210030039A1, “Prebiotic Compositions And Methods Of Production Thereof” (Optibiotix Limited, priority 2018, published 2021).

The conditions of test [1]: reported; cited from earlier work.
Test [2] can be described thus: Sensory profiling (QDA) by trained sensory panel, unstructured line scales 0-100. The class given is in vivo, human. An excerpt:
A trained sensory panel at the Reading Sensory Science Centre (UK) were employed for sensory profiling of the samples. There were 10 panellists with between 1 and 9 years' experience. A QDA (quantitative descriptive analysis) profiling approach was taken. The panel used the same vocabulary that they had developed as a consensus for the tasting sessions including the term liquorice flavour which is characteristic note of steviol glycosides. The panel were retrained at the start of the sample set over 3 separate tasting sessions. This re-training focused on ensuring that they could reliably score sweetness relative to the new concentration of sucrose standard positions. Rating was carried out independently using unstructured lines scales (scaled 0-100), in duplicate, in isolated sensory booths. However, in order to improve discrimination for sweetness, the four sucrose samples were used as standards and the mean values for each of these samples, as agreed by the panel, are shown in Table 1 below. At the start of each scoring session the panel tasted the four reference samples in order of increasing strength to re-familiarise themselves with the positioning of these levels of sweetness on the line scale. The reference samples (10 mL) were served in transparent polystyrene cups (30 mL). They then palate cleansed with warm filtered tap water and low salt crackers (Carr's water crackers) before commencing the sample tasting session, and again between each sample scoring session. Samples, labelled with random 3 digit codes, were presented in a balanced presentation order in a monadic sequential manner with a maximum of 6 samples per day. Samples were served at 23-24° C. (room temperature) with air conditioning of the room set to 23° C.

Each structure is given as a SMILES string.

Regarding `C[C@H](CC[C@@H](O[C@@H]1O[C@H](CO[C@@H]2O[C@H](CO)[C@@H](O)[C@H](O)[C@H]2O)[C@@H](O)[C@H](O)[C@H]1O[C@@H]1O[C@H](CO)[C@@H](O)[C@H](O)[C@H]1O)C(C)(C)O)[C@H]1CC[C@@]2(C)[C@@H]3CC=C4[C@@H](CC[C@H](O[C@@H]5O[C@H](CO[C@@H]6O[C@H](CO)[C@@H](O)[C@H](O)[C@H]6O)[C@@H](O)[C@H](O)[C@H]5O)C4(C)C)[C@]3(C)[C@H](O)C[C@]12C` [Mogroside V], in test [1], the “sweet potency relative to sucrose” value is about 400 ×.
With `OC[C@H]1O[C@@](CO)(O[C@H]2O[C@H](CO)[C@@H](O)[C@H](O)[C@H]2O)[C@@H](O)[C@@H]1O` [Sucrose], the “Mean Rating (0-100), sweetness standard” value in test [2] (Standard 1, sucrose 2.0 % w/v) was found to be 10; in test [2] (Standard 2, sucrose 4.0 % w/v) it was 35; in test [2] (Standard 3, sucrose 6.0 % w/v), 75; in test [2] (Standard 4, sucrose 8.0 % w/v) it was 100.
